# According to PubChem BioAssay AID1963424 (Molecular Pharmacology Branch, DTP, NCI, 2024):
# System: 327498-153-R-J2-PDC complex spheroid growth, % test/control
# Assay: Anticancer human tumor 327498-153-R-J2-PDC patient-derived uterine carcinosarcoma cell line growth inhibition [Asc]
# Conditions: for IC50: curve of first compound; for viability, T/C: stronger effect = lower value
# In short: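 Concentration series start at each agent's clinical Cmax, or at 10 microM when none is established, and drop in half-log steps; agents are applied alone or together to complex spheroids built with HUVEC and hMSC.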
# [1] = second compound 0.03 µM, first compound 0.0316 µM
# [2] = second compound 0.03 µM, first compound 0.1 µM
# [3] = second compound 0.03 µM, first compound 0.316 µM
# [4] = second compound 0.03 µM, first compound 1 µM
# [5] = second compound 0.03 µM, first compound 3.16 µM
# [6] = second compound 0.03 µM, first compound 10 µM
# [7] = second compound 0.0949 µM, first compound 0.0316 µM
# [8] = second compound 0.0949 µM, first compound 0.1 µM
# [9] = second compound 0.0949 µM, first compound 0.316 µM
# [10] = second compound 0.0949 µM, first compound 1 µM
# [11] = second compound 0.0949 µM, first compound 3.16 µM
# [12] = second compound 0.0949 µM, first compound 10 µM
# [13] = second compound 0.3 µM, first compound 0.0316 µM
# [14] = second compound 0.3 µM, first compound 0.1 µM
# [15] = second compound 0.3 µM, first compound 0.316 µM
# [16] = second compound 0.3 µM, first compound 1 µM
# [17] = second compound 0.3 µM, first compound 3.16 µM
# [18] = second compound 0.3 µM, first compound 10 µM
# [19] = second compound 0.949 µM, first compound 0.0316 µM
# [20] = second compound 0.949 µM, first compound 0.1 µM
# [21] = second compound 0.949 µM, first compound 0.316 µM
# [22] = second compound 0.949 µM, first compound 1 µM
# [23] = second compound 0.949 µM, first compound 3.16 µM
# [24] = second compound 0.949 µM, first compound 10 µM
# [25] = second compound 3 µM, first compound 0.0316 µM
# [26] = second compound 3 µM, first compound 0.1 µM
# [27] = second compound 3 µM, first compound 0.316 µM
# [28] = second compound 3 µM, first compound 1 µM
# [29] = second compound 3 µM, first compound 3.16 µM
# [30] = second compound 3 µM, first compound 10 µM
# 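Note: spheroids exposed to compound for 7 days after 3 days of growth.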
# 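Throughout, for viability, T/C: 100% = DMSO vehicle control wells.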
SMILES,IC50 (second compound 0.03 µM) [nM],IC50 (second compound 0.0949 µM) [nM],IC50 (second compound 0.3 µM) [nM],IC50 (second compound 0.949 µM) [nM],IC50 (second compound 3 µM) [nM],"viability, T/C [1] [%]","viability, T/C [2] [%]","viability, T/C [3] [%]","viability, T/C [4] [%]","viability, T/C [7] [%]","viability, T/C [8] [%]","viability, T/C [9] [%]","viability, T/C [10] [%]","viability, T/C [13] [%]","viability, T/C [14] [%]","viability, T/C [15] [%]","viability, T/C [16] [%]","viability, T/C [19] [%]","viability, T/C [20] [%]","viability, T/C [21] [%]",also measured
C#Cc1c(F)ccc2cc(O)cc(-c3ncc4c(N5CC6CCC(C5)N6)nc(OCC56CCCN5CC(F)C6)nc4c3F)c12 (stereo not given) + CCN1C(C(=O)NC23CCC(C(=O)O)(CC2)CC3)C(c2cccc(Cl)c2F)C2(C(=O)Nc3cc(Cl)ccc32)C12CCCCC2,2930,709,< 31.6,< 31.6,< 31.6,87.3,94.4,83.2,61.2,77.4,74.7,61.6,43,33.5,36.1,24.3,15.7,10.2,9.47,4.8,"viability, T/C [5]: 54%; viability, T/C [6]: 39.4%; viability, T/C [11]: 37%; viability, T/C [12]: 26.8%; viability, T/C [17]: 14.4%; viability, T/C [18]: 7.22%; viability, T/C [22]: 4.74%; viability, T/C [23]: 4.43%; viability, T/C [24]: 1.84%; viability, T/C [25]: 2.16%; viability, T/C [26]: 1.97%; viability, T/C [27]: 2.08%; viability, T/C [28]: 1.55%; viability, T/C [29]: 1.14%; viability, T/C [30]: 0.73%"
C=C(F)C(=O)N1CCN(c2nc(OCC3CCCN3C)nc3c2CCN(c2cccc4cccc(Cl)c24)C3)CC1CC#N (stereo not given) + CCN1C(C(=O)NC23CCC(C(=O)O)(CC2)CC3)C(c2cccc(Cl)c2F)C2(C(=O)Nc3cc(Cl)ccc32)C12CCCCC2,552,< 31.6,< 31.6,< 31.6,< 31.6,56.4,55.3,59.8,42.5,49.1,38.6,38.5,25.4,23.3,18.5,12.5,10.9,6.62,5.04,5.41,"viability, T/C [5]: 6.79%; viability, T/C [6]: 0.13%; viability, T/C [11]: 0.52%; viability, T/C [12]: 0.11%; viability, T/C [17]: 0.07%; viability, T/C [18]: 0.11%; viability, T/C [22]: 1.84%; viability, T/C [23]: 0.03%; viability, T/C [24]: 0.12%; viability, T/C [25]: 1.83%; viability, T/C [26]: 2.77%; viability, T/C [27]: 1.2%; viability, T/C [28]: 0.65%; viability, T/C [29]: 0.14%; viability, T/C [30]: 1.2%"
C=CC(=O)N1CCN(c2nc(=O)n(-c3c(C)ccnc3C(C)C)c3nc(-c4c(O)cccc4F)c(F)cc23)C(C)C1 (stereo not given) + CCN1C(C(=O)NC23CCC(C(=O)O)(CC2)CC3)C(c2cccc(Cl)c2F)C2(C(=O)Nc3cc(Cl)ccc32)C12CCCCC2,> 10000,< 31.6,< 31.6,< 31.6,< 31.6,80.2,66.8,61.3,61,48.1,43.3,39.1,40.8,25.8,22.3,21.1,13.9,6.85,10.2,5.74,"viability, T/C [5]: 60.4%; viability, T/C [6]: 47.7%; viability, T/C [11]: 31%; viability, T/C [12]: 23.5%; viability, T/C [17]: 15.8%; viability, T/C [18]: 10.9%; viability, T/C [22]: 6.83%; viability, T/C [23]: 5.12%; viability, T/C [24]: 4.58%; viability, T/C [25]: 2.47%; viability, T/C [26]: 2.14%; viability, T/C [27]: 2.66%; viability, T/C [28]: 2.75%; viability, T/C [29]: 3.23%; viability, T/C [30]: 2.77%"
CNC(C)C(=O)NC1CN(S(=O)(=O)c2cccc(S(=O)(=O)N3CCC4CCC(C(=O)NC(c5ccccc5)c5ccccc5)N4C(=O)C(NC(=O)C(C)NC)C3)c2)CCC2CCC(C(=O)NC(c3ccccc3)c3ccccc3)N2C1=O (stereo not given) + CCN1C(C(=O)NC23CCC(C(=O)O)(CC2)CC3)C(c2cccc(Cl)c2F)C2(C(=O)Nc3cc(Cl)ccc32)C12CCCCC2,> 1000,> 1000,< 3.16,< 3.16,< 3.16,85.6,91.7,89.2,73.3,63.5,65.8,65.4,60.4,35.1,24.6,35.6,30.3,5.92,4.78,6.7,"viability, T/C (second compound 0.03 µM, first compound 0.00316 µM): 92.8%; viability, T/C (second compound 0.03 µM, first compound 0.01 µM): 84.1%; viability, T/C (second compound 0.0949 µM, first compound 0.00316 µM): 86.3%; viability, T/C (second compound 0.0949 µM, first compound 0.01 µM): 70.2%; viability, T/C (second compound 0.3 µM, first compound 0.00316 µM): 41.7%; viability, T/C (second compound 0.3 µM, first compound 0.01 µM): 36.5%; viability, T/C (second compound 0.949 µM, first compound 0.00316 µM): 13.8%; viability, T/C (second compound 0.949 µM, first compound 0.01 µM): 9.3%; viability, T/C [22]: 8.64%; viability, T/C (second compound 3 µM, first compound 0.00316 µM): 3.86%; viability, T/C (second compound 3 µM, first compound 0.01 µM): 2.08%; viability, T/C [25]: 2.54%; viability, T/C [26]: 1.28%; viability, T/C [27]: 2.31%; viability, T/C [28]: 1.12%"
